The experiment deals with T1, human mAChR M4 (Homo sapiens, UniProt P08173).
T1 construct: expressed in transfected cells; host or cells: CHO-K1 (American Type Culture Collection), stably expressing hM4 and Gqi5
T1 sequence (P08173 1-479): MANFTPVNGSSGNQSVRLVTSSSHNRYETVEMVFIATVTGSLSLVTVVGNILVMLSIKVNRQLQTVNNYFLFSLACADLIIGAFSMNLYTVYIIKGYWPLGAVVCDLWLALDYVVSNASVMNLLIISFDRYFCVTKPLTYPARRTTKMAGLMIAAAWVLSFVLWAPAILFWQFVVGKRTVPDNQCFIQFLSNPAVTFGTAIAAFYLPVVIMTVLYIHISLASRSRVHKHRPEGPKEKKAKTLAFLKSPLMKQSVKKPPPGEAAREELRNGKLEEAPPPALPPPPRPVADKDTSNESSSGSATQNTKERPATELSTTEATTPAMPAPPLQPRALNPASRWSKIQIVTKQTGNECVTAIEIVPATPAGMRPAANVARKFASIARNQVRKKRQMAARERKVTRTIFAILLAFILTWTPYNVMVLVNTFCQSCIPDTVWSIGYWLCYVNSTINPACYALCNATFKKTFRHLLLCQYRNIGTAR
The experiment is described as follows: mAChR M4 cell-based functional assay: calcium mobilization (Fluo-4, FDSS), potentiation of EC20 acetylcholine response in hM4-Gqi5 CHO-K1 cells. The note with it: human M4; for Emax at 30 µM: CHO-K1, % ACh maximum at 30 μM; for EC50: potentiation of EC20 acetylcholine response, calcium mobilization; for Emax (%)*: % ACh maximum at 30 μM. How it is done: Human and rat M4 cDNAs, along with the chimeric G protein Gqi5, were transfected into Chinese hamster ovary (CHO-K1) cells purchased from the American Type Culture Collection using Lipofectamine2000. hM4-Gqi5 cells were grown in Ham's F-12 medium containing 10% heat-inactivated fetal bovine serum (FBS), 20 mM HEPES, 50 μg/mL G418 sulfate, and 500 μg/mL Hygromycin B. rM4-Gqi5 cells were grown in DMEM containing 10% heat-inactivated FBS, 20 mM HEPES, 400 μg/mL G418 sulfate, and 500 μg/mL Hygromycin B.
For high throughput measurement of agonist-evoked increases in intracellular calcium, CHO-K1 cells stably expressing muscarinic receptors were plated in growth medium lacking G418 and hygromycin at 15,000 cells/20 μL/well in Greiner 384-well black-walled, tissue culture (TC)-treated, clear-bottom plates (VWR). Cells were incubated overnight at 37° C. and 5% CO2. The next day, cells were washed using an ELX 405 (BioTek) with assay buffer; the final volume was then aspirated to 20 μL. Next, 20 μL of a […] of Fluo-4/acetoxymethyl ester (Invitrogen, Carlsbad, CA), prepared as a 2.3 mM stock in DMSO and mixed in a 1:1 ratio with 10% (w/v) Pluronic F-127 and diluted in assay buffer, was added to the wells and the cell plates were incubated for 50 min at 37° C. and 5% CO2. Dye was removed by washing with the ELX 405 and the final volume was aspirated to 20 μL. Compound master plates were formatted in an 11 point concentration-response curve (CRC) format (1:3 dilutions) in 100% DMSO with a starting concentration of 10 mM using a BRAVO liquid handler (Agilent). Test compound CRCs were then transferred to daughter plates (240 nL) using the Echo acoustic plate reformatter (Labcyte, Sunnyvale, CA) and then diluted into assay buffer (40 μL) to a 2× stock using a Thermo Fisher Combi (Thermo Fisher Scientific, Waltham, MA).
Calcium flux was measured using the Functional Drug Screening System (FDSS) 6000 or 7000 (Hamamatsu Corporation, Tokyo, Japan) as an increase in the fluorescent static ratio. Compounds were applied to cells (20 μL, 2X) using the automated system of the FDSS at 2-4 seconds into the protocol and the data were collected at 1 Hz. At 144 seconds, 10 μL of an EC20 concentration of the muscarinic receptor agonist acetylcholine was added (5×), followed by the addition of 12 μL of an […] concentration of acetylcholine at the 230 second time point (5×). Agonist activity was analyzed as a concentration-dependent increase in calcium mobilization upon compound addition. Positive allosteric modulator activity was analyzed as a concentration-dependent increase in the EC20 acetylcholine response. Antagonist activity was analyzed as a concentration-dependent decrease in the EC20 acetylcholine response. Concentration-response curves were generated using a four-parameter logistical equation in XLFit curve fitting software (IDBS, Bridgewater, NJ) for Excel (Microsoft, Redmond, WA) or Prism (GraphPad Software, Inc., San Diego, CA).
Compounds were synthesized as described above. Activity (EC50 and Emax) was determined in the mAChR M4 cell-based functional assay as described above and the data are shown in Table 4. The compound number corresponds to the compound numbers used in Tables 1-3.
(Calcium flux is commonly read through the fluorescence of an indicator in the cells.)

By Emax is commonly meant the maximal effect, on the per cent scale that the assay sets. For orientation: EC50 means the concentration at which the effect is half-maximal. On to `COCc1cc(=O)n2nc(N3Cc4cc(C(F)(F)F)cnc4C(C)C3)c(C)c(C)c2n1` (single isomer, unassigned) [Compound 1-376], for which the Emax at 30 µM was found to be 106% and the EC50 came out at 325 nM. Consider `COCc1cc(=O)n2nc(N3Cc4cc(C(F)(F)F)cnc4C(C)C3)c(C)c(C)c2n1` (single isomer, unassigned) [Compound 1-377], for which the “Emax (%)*” value was 112% and the concentration giving a half-maximal response (EC50) was determined as 365 nM. As for `Cc1c(N2CCc3ncc(C(F)(F)F)cc3C2C)nn2c(=O)ccnc2c1C` (single isomer, unassigned) [Compound 1-385, 8,9-dimethyl-7-(5-methyl-3-(trifluoromethyl)-7,8-dihydro-1,6-naphthyridin-6(5H)-yl)-4H-pyrimido[1,2-b] pyridazin-4-one], the “Emax (%)*” value worked out at 42% and the EC50 was found to be 1730 nM. As for `Cc1c(N2CCc3ncc(C(F)(F)F)cc3C2C)nn2c(=O)ccnc2c1C` (single isomer, unassigned) [Compound 1-386, 8,9-dimethyl-7-(5-methyl-3-(trifluoromethyl)-7,8-dihydro-1,6-naphthyridin-6(5H)-yl)-4H-pyrimido[1,2-b] pyridazin-4-one], the “Emax (%)*” value was determined as 80% and the EC50 is 950 nM. Take `Cc1cc2nccc(=O)n2nc1N1CCc2ncc(N3CCOC(c4ccccc4)C3)cc2C1` (stereo in doubt) [Compound 2-73, (S)-8-methyl-7-(3-(2-phenylmorpholino)-7,8-dihydro-1,6-naphthyridin-6(5H)-yl)-4H-pyrimido[1,2-b]pyridazin-4-one]: the maximal response (Emax) at 30 µM amounted to 87%.

As for `Cc1cc2nccc(=O)n2nc1N1CCc2ncc(N3CCOC(c4ccccc4)C3)cc2C1` (stereo in doubt) [Compound 2-96, (R)-8-methyl-7-(3-(2-phenylmorpholino)-7,8-dihydro-1,6-naphthyridin-6(5H)-yl)-4H-pyrimido[1,2-b]pyridazin-4-one], the Emax at 30 µM amounted to 42% and the EC50 was determined as 1430 nM. The corresponding values for `Cc1cc2nccc(=O)n2nc1N1CCc2ncc(C(F)(F)F)cc2C1` [Compound 1-1, 8-methyl-7-(3-(trifluoromethyl)-7,8-dihydro-1,6-naphthyridin-6(5H)-yl)-4H-pyrimido[1,2-b]pyridazin-4-one] are 81% and 300 nM.

On to `Cc1cc2nccc(=O)n2nc1N1CCc2ncc(-c3cn(C)nc3C)cc2C1` [Compound 1-2, 7-(3-(1,3-dimethyl-1H-pyrazol-4-yl)-7,8-dihydro-1,6-naphthyridin-6(5H)-yl)-8-methyl-4H-pyrimido[1,2-b]pyridazin-4-one], for which the Emax at 30 µM was 87% and the EC50 is 501 nM. The corresponding values for `Cc1ccc(-c2cnc3c(c2)CN(c2nn4c(=O)ccnc4cc2C)CC3)cn1` [Compound 1-3, 8-methyl-7-(3-(6-methylpyridin-3-yl)-7,8-dihydro-1,6-naphthyridin-6(5H)-yl)-4H-pyrimido[1,2-b]pyridazin-4-one] are 76% and 99 nM.

`Cc1cc2ncc(Cl)c(=O)n2nc1N1CCc2ncc(C(F)(F)F)cc2C1` [Compound 1-4, 3-chloro-8-methyl-7-(3-(trifluoromethyl)-7,8-dihydro-1,6-napthyridin-6(5H)-yl)-4H-pyrimido[1,2-b]pyridazin-4-one]: the Emax at 30 µM came to 96% and the concentration for a half-maximal effect (EC50) is 181 nM. The corresponding values for `Cc1ncc(-c2cnc3c(c2)CN(c2nn4c(=O)ccnc4cc2C)CC3)s1` [Compound 1-5, 8-methyl-7-(3-(2-methylthiazol-5-yl)-7,8-dihydro-1,6-naphthyridin-6(5H)-yl)-4H-pyrimido[1,2-b]pyridazin-4-one] are 86% and 422 nM. On the same counts, the results for `Cc1cc2nccc(=O)n2nc1N1CCc2ncc(-c3cnn(C)c3)cc2C1` [Compound 1-6, 8-methyl-7-(3-(1-methyl-1H-pyrazol-4-yl)-7,8-dihydro-1,6-naphthyridin-6(5H)-yl)-4H-pyrimido[1,2-b]pyridazin-4-one] are 83% and 736 nM. The corresponding values for `Cc1cc2nccc(=O)n2nc1N1CCc2ncc(-c3cnn(C4CC4)c3)cc2C1` [Compound 1-8, 7-(3-(1-cyclopropyl-1H-pyrazol-4-yl)-7,8-dihydro-1,6-naphthyridin-6(5H)-yl)-8-methyl-4H-pyrimido[1,2-b]pyridazin-4-one] are 81% and 308 nM. Take `Cc1cc2ncc(Cl)c(=O)n2nc1N1CCc2ncc(C3CC3)cc2C1` [Compound 1-9, 3-chloro-7-(3-cyclopropyl-7,8-dihydro-1,6-naphthyridin-6(5H)-yl)-8-methyl-4H-pyrimido[1,2-b]pyridazin-4-one]: the Emax at 30 µM amounted to 75% and the concentration for a half-maximal effect (EC50) amounted to 25 nM. The corresponding values for `Cc1cc2ncc(Cl)c(=O)n2nc1N1CCc2ncc(-c3ccnn3C)cc2C1` [Compound 1-10, 3-chloro-8-methyl-7-(3-(1-methyl-1H-pyrazol-5-yl)-7,8-dihydro-1,6-naphthyridin-6(5H)-yl)-4H-pyrimido[1,2-b]pyridazin-4-one] are 86% and 162 nM. On the same counts, the results for `Cc1cc2ncc(Cl)c(=O)n2nc1N1CCc2ncc(-c3cn(C)nc3C)cc2C1` [Compound 1-11, 3-chloro-7-(3-(1,3-dimethyl-1H-pyrazol-4-yl)-7,8-dihydro-1,6-naphthyridin-6(5H)-yl)-8-methyl-4H-pyrimido[1,2-b]pyridazin-4-one] are 92% and 158 nM. On the same counts, the results for `Cc1cc2ncc(Cl)c(=O)n2nc1N1CCc2ncc(-c3cnn(C4CC4)c3)cc2C1` [Compound 1-12, 3-chloro-7-(3-(1-cyclopropyl-1H-pyrazol-4-yl)-7,8-dihydro-1,6-naphthyridin-6(5H)-yl)-8-methyl-4H-pyrimido[1,2-b]pyridazin-4-one] are 80% and 127 nM. Turning to `Cc1ncc(-c2cnc3c(c2)CN(c2nn4c(=O)c(Cl)cnc4cc2C)CC3)s1` [Compound 1-13, 3-chloro-8-methyl-7-(3-(2-methylthiazol-5-yl)-7,8-dihydro-1,6-naphthyridin-6(5H)-yl)-4H-pyrimido[1,2-b]pyridazin-4-one], the maximum response (Emax) at 30 µM was found to be 79% and the EC50 came to 373 nM.

`Cc1ccc(-c2cnc3c(c2)CN(c2nn4c(=O)c(Cl)cnc4cc2C)CC3)cn1` [Compound 1-14, 3-chloro-8-methyl-7-(3-(6-methylpyridin-3-yl)-7,8-dihydro-1,6-naphthyridin-6(5H)-yl)-4H-pyrimido[1,2-b]pyridazin-4-one]: the Emax at 30 µM turned out to be 77% and the half-maximal effective concentration (EC50) came to 69 nM.

As for `Cc1cc2nc(C)c(F)c(=O)n2nc1N1CCc2ncc(C(F)(F)F)cc2C1` [Compound 1-15, 3-fluoro-2,8-dimethyl-7-(3-(trifluoromethyl)-7,8-dihydro-1,6-naphthyridin-6(5H)-yl)-4H-pyrimido[1,2-b]pyridazin-4-one], the Emax at 30 µM turned out to be 73% and the EC50 came to 136 nM.

Values taken from patent publication US20250101041A1, “POSITIVE ALLOSTERIC MODULATORS OF THE MUSCARINIC ACETYLCHOLINE RECEPTOR M4” (Vanderbilt University, priority 2022, published 2025).
